Laboratory results: patent publication US6528492B1, “SINGLE-STEP PROCESS FOR PREPARING 7, 16-DEOXY-2-AZA-10-0-CLADINOSIL-12-0-DESOSAMINIL-4, 5-DIHYDROXY-6-ETHYL-3,5,9,11,13,15-HEXAMETHYLBICYCLE (11.2.1) HEXADECA-1(2)-EN-ONA AND OBTAINING A NEW FORM OF 9-DEOXO-9A-METHYL-9A-AZA-9A-HOMOERYTHROMYCIN A” (Instituto de Investigacion en Quimica Aplicada S.C., priority 2001, dated 2003)

Legend:
[1] = Moisture uptake on exposure to room conditions; assay type: physicochemical; details: exposed to room conditions, relative humidity average of 45%, ten days
Text: In addition to its novel features, the physical form obtained has physical characteristics that make it useful in preparing pharmaceutical preparations, with significant advantages over the forms existing to date. […] In contrast, the anhydrous crystalline form obtained here, when exposed to room conditions, at an relative humidity average of 45%, for ten days, increases its moisture content by only 0.55%, while a reference sample of dihydrated azithromycin increased its moisture content by 1% in the same time.

[2] = Dissolution profile of 500 mg azithromycin tablets; assay type: physicochemical; details: total weight one gram, solvents and procedure similar to capsules in U.S. Pharmacopoeia 2000, page 186
Description: In order to test the performance of anhydrous crystalline azithromycin in producing pharmaceutical preparations, 500 mg azithromycin tablets were made with total weight of one gram. The dissolution profile of these tablets was determined, and compared with the dissolution profile of tablets made with the same preparation using dihydrated azithromycin. The used solvents, and the procedure followed, were similar to those indicated for capsules in U.S. Pharmacopoeia 2000, page 186. […] This property gives the anhydrous crystalline form reported herein significant practical advantages over the dihydrated forms, given that increased solubility of the pharmaceutical preparation generally implies greater bioavailabilty of the drug and in consequence increases its therapeutic effectiveness.

[3] = as indicated by patent PCT/US87/0612; cited from earlier work

SMILES	increase of moisture content [1] [%]	dissolution values of tablets compared with tablets made with dihydrated azithromycin [2]	hygroscopicity [3]
CCC1OC(=O)C(C)C(OC2CC(C)(OC)C(O)C(C)O2)C(C)C(OC2OC(C)CC(N(C)C)C2O)C(C)(O)CC(C)CN(C)C(C)C(O)C1(C)O (stereo not shown) [anhydrous crystalline form, 9-deoxo-9a-methyl-9a-aza-9a-homoerythromycin A]	0.55	significantly higher	
CCC1OC(=O)C(C)C(OC2CC(C)(OC)C(O)C(C)O2)C(C)C(OC2OC(C)CC(N(C)C)C2O)C(C)(O)CC(C)CN(C)C(C)C(O)C1(C)O (stereo not shown) [dihydrated azithromycin, 9-deoxo-9a-methyl-9a-aza-9a-homoerythromycin A]	1		
CCC1OC(=O)C(C)C(OC2CC(C)(OC)C(O)C(C)O2)C(C)C(OC2OC(C)CC(N(C)C)C2O)C(C)(O)CC(C)CN(C)C(C)C(O)C1(C)O (stereo not shown) [forms reported by Kobrehel et al., 9-deoxo-9a-methyl-9a-aza-9a-homoerythromycin A]			highly hygroscopes
